Key:
[1] = system: oval-leafed pondweed; assay: Test Example 1: herbicidal activity, application before weed generation under submerged conditions (Table 16, symbol C); format: in vivo, oval-leafed pondweed (Monochoria vaginalis)
Outline: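 Emulsion formulation, water-diluted to set dose, was put onto the flooded surface (4 cm depth, alluvial soil) the same day weeds were sown and 2.5-leaf rice transplanted. After 3 weeks at 25-30 °C under glass, each species was rated 0 (≤5% kill) to 5 (≥90% kill).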

[2] = system: Japanese bulrush; assay: Test Example 2: herbicidal activity, application during weed generation under submerged conditions (Table 17, symbol B); format: in vivo, Japanese bulrush (Schoenoplectus juncoides); details: application during weed generation, submerged conditions
Outline: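 Wagner pot, alluvial soil, 4 cm flood; mixed sowing of all species; greenhouse 25° C.–30° C. Emulsifiable formulation, water-diluted to predetermined dose, applied to paddy water at 1–2 leaf stage. Effect rated at 3 wk using the earlier test's scoring criteria.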

[3] = system: Chinese sprangletop; assay: Test Example 3: herbicidal effect by foliage application, Wagner pot (Table 18, symbol D); format: in vivo, chinese sprangletop (Leptochloa chinensis)
Outline: (§1)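 Plants were sown in alluvial soil held under 0.1–0.5 cm standing water and grown 14 days in a greenhouse at 25–30 °C. An emulsifiable formulation, water-diluted to the set dose, was then sprayed onto the foliage, and effects were scored three weeks later using previously defined criteria.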

[4] = system: rice flat sedge; assay: Test Example 3: herbicidal effect by foliage application, Wagner pot (Table 18, symbol E); format: in vivo, rice flat sedge (Cyperus iria)
Outline: as §1

[5] = system: green foxtail; assay: Test Example 4: herbicidal effect by soil treatment (Table 19, symbol G); format: in vivo, green foxtail (Setaria viridis)
Outline: (§2)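 Three weeks of greenhouse growth at 25° C. to 30° C. followed a uniform surface spray of water-diluted emulsion at a predetermined herbicide amount. Seeds had been sown beforehand under about 1.5 cm of sterilized diluvial soil. Grading followed criteria set out in an earlier test.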

[6] = system: wild oat; assay: Test Example 4: herbicidal effect by soil treatment (Table 19, symbol I); format: in vivo, wild oat (Avena fatua)
Outline: as §2

[7] = system: Italian ryegrass; assay: Test Example 4: herbicidal effect by soil treatment (Table 19, symbol K); format: in vivo, Italian ryegrass (Lolium multiflorum)
Outline: as §2

[8] = system: windgrass; assay: Test Example 4: herbicidal effect by soil treatment (Table 19, symbol L); format: in vivo, windgrass (Apera spica-venti)
Outline: as §2

[9] = system: velvetleaf; assay: Test Example 4: herbicidal effect by soil treatment (Table 19, symbol M); format: in vivo, velvetleaf (Abutilon theophrasti)
Outline: as §2

[10] = system: redroot pigweed; assay: Test Example 4: herbicidal effect by soil treatment (Table 19, symbol N); format: in vivo, redroot pigweed (Amaranthus retroflexus)
Outline: as §2

[11] = system: lambsquarters; assay: Test Example 4: herbicidal effect by soil treatment (Table 19, symbol O); format: in vivo, lambsquarters (Chenopodium album)
Outline: as §2

[12] = system: persian speedwell; assay: Test Example 4: herbicidal effect by soil treatment (Table 19, symbol R); format: in vivo, Persian speedwell (Veronica persica)
Outline: as §2

[13] = system: barnyard grass; assay: Test Example 5: herbicidal effect by foliage application, plastic box (Table 20, symbol H); format: in vivo, barnyard grass (Echinochloa crus-galli); details: foliage application, three weeks after application
Outline: (§3)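 Plants sown in sterilized diluvial soil and grown 14 days in a greenhouse at 25° C to 30° C, then sprayed on the foliage with the compound's emulsion diluted in water to a predetermined herbicide amount. Injury to weeds and crops scored three weeks after application on a visual rating scale.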

[14] = system: blackgrass; assay: Test Example 5: herbicidal effect by foliage application, plastic box (Table 20, symbol J); format: in vivo, blackgrass (Alopecurus myosuroides); details: foliage application, three weeks after application
Outline: as §3

[15] = system: Italian ryegrass; assay: Test Example 5: herbicidal effect by foliage application, plastic box (Table 20, symbol K); format: in vivo, Italian ryegrass (Lolium multiflorum); details: foliage application, three weeks after application
Outline: as §3

[16] = system: velvetleaf; assay: Test Example 5: herbicidal effect by foliage application, plastic box (Table 20, symbol M); format: in vivo, velvetleaf (Abutilon theophrasti); details: foliage application, three weeks after application
Outline: as §3

[17] = system: chickweed; assay: Test Example 5: herbicidal effect by foliage application, plastic box (Table 20, symbol P); format: in vivo, common chickweed (Stellaria media); details: foliage application, three weeks after application
Outline: as §3

[18] = amount of applied herbicide 80 g/ha
[19] = amount of applied herbicide 320 g/ha

Compound	Herbicidal effect, C: oval-leafed pondweed [1, 19]	herbicidal effect rating, B: Japanese bulrush ([2]; AAH 320 g/ha)	herbicidal effect on Chinese sprangletop (D) ([3]; 320 g/ha)	herbicidal effect on rice flat sedge (E) ([4]; 320 g/ha)	G: green foxtail, herbicidal effect grade [5, 19]	I: wild oat, herbicidal effect grade [6, 19]	K: Italian ryegrass, herbicidal effect grade [7, 19]	L: windgrass, herbicidal effect grade [8, 19]	M: velvetleaf, herbicidal effect grade [9, 19]	N: redroot pigweed, herbicidal effect grade [10, 19]	O: lambsquarters, herbicidal effect grade [11, 19]	R: persian speedwell, herbicidal effect grade [12, 19]	H: barnyard grass, herbicidal effect grade ([13]; 320 g/ha)	J: blackgrass, herbicidal effect grade ([14]; 320 g/ha)	K: Italian ryegrass, herbicidal effect grade ([15]; 320 g/ha)	M: velvetleaf, herbicidal effect grade ([16]; 320 g/ha)	P: chickweed, herbicidal effect grade ([17]; 320 g/ha)	other results
CCOc1cc(F)ccc1-c1sc2cc(OC)ccc2c1-c1c(O)c(C)nn(C)c1=O [3-078]	–	–	–	–	–	–	–	–	–	–	–	–	–	–	–	–	–	Herbicidal effect, C: oval-leafed pondweed [1, 18]: 4 (Herbicidal rate of 70% or more and less than 90%); herbicidal effect rating, B: Japanese bulrush ([2]; AAH 80 g/ha): 5 (Herbicidal rate of 90% or more (almost completely withered)); herbicidal effect on Chinese sprangletop (D) ([3]; 80 g/ha): 3 (Herbicidal rate of 40% or more and less than 70%); herbicidal effect on rice flat sedge (E) ([4]; 80 g/ha): 5 (Herbicidal rate of 90% or more (almost completely withered)); G: green foxtail, herbicidal effect grade [5, 18]: 0 (Herbicidal rate of 5% or less (almost no effect)); I: wild oat, herbicidal effect grade [6, 18]: 0 (Herbicidal rate of 5% or less (almost no effect)); K: Italian ryegrass, herbicidal effect grade [7, 18]: 3 (Herbicidal rate of 40% or more and less than 70%); L: windgrass, herbicidal effect grade [8, 18]: 0 (Herbicidal rate of 5% or less (almost no effect)); M: velvetleaf, herbicidal effect grade [9, 18]: 0 (Herbicidal rate of 5% or less (almost no effect)); N: redroot pigweed, herbicidal effect grade [10, 18]: 3 (Herbicidal rate of 40% or more and less than 70%); O: lambsquarters, herbicidal effect grade [11, 18]: 4 (Herbicidal rate of 70% or more and less than 90%); R: persian speedwell, herbicidal effect grade [12, 18]: 5 (Herbicidal rate of 90% or more (almost completely withered)); H: barnyard grass, herbicidal effect grade ([13]; 80 g/ha): 5 (Herbicidal rate of 90% or more (almost completely withered)); J: blackgrass, herbicidal effect grade ([14]; 80 g/ha): 4 (Herbicidal rate of 70% or more and less than 90%); K: Italian ryegrass, herbicidal effect grade ([15]; 80 g/ha): 4 (Herbicidal rate of 70% or more and less than 90%); M: velvetleaf, herbicidal effect grade ([16]; 80 g/ha): 5 (Herbicidal rate of 90% or more (almost completely withered)); P: chickweed, herbicidal effect grade ([17]; 80 g/ha): 5 (Herbicidal rate of 90% or more (almost completely withered))
CCCC(=O)Oc1c(C)nn(C)c(=O)c1-c1c(-c2ccc(F)cc2OCC)sc2cc(OC)ccc12 [3-079]	5 (Herbicidal rate of 90% or more (almost completely withered))	5 (Herbicidal rate of 90% or more (almost completely withered))	4 (Herbicidal rate of 70% or more and less than 90%)	5 (Herbicidal rate of 90% or more (almost completely withered))	1 (Herbicidal rate of 5% or more and less than 20%)	0 (Herbicidal rate of 5% or less (almost no effect))	0 (Herbicidal rate of 5% or less (almost no effect))	3 (Herbicidal rate of 40% or more and less than 70%)	3 (Herbicidal rate of 40% or more and less than 70%)	4 (Herbicidal rate of 70% or more and less than 90%)	3 (Herbicidal rate of 40% or more and less than 70%)	5 (Herbicidal rate of 90% or more (almost completely withered))	5 (Herbicidal rate of 90% or more (almost completely withered))	4 (Herbicidal rate of 70% or more and less than 90%)	4 (Herbicidal rate of 70% or more and less than 90%)	5 (Herbicidal rate of 90% or more (almost completely withered))	5 (Herbicidal rate of 90% or more (almost completely withered))	–
COc1ccc2c(-c3c(O)c(C)nn(C)c3=O)c(-c3ccc4c(c3)OCCO4)sc2c1 [3-082]	4 (Herbicidal rate of 70% or more and less than 90%)	1 (Herbicidal rate of 5% or more and less than 20%)	3 (Herbicidal rate of 40% or more and less than 70%)	5 (Herbicidal rate of 90% or more (almost completely withered))	0 (Herbicidal rate of 5% or less (almost no effect))	0 (Herbicidal rate of 5% or less (almost no effect))	0 (Herbicidal rate of 5% or less (almost no effect))	0 (Herbicidal rate of 5% or less (almost no effect))	0 (Herbicidal rate of 5% or less (almost no effect))	3 (Herbicidal rate of 40% or more and less than 70%)	0 (Herbicidal rate of 5% or less (almost no effect))	5 (Herbicidal rate of 90% or more (almost completely withered))	3 (Herbicidal rate of 40% or more and less than 70%)	1 (Herbicidal rate of 5% or more and less than 20%)	3 (Herbicidal rate of 40% or more and less than 70%)	3 (Herbicidal rate of 40% or more and less than 70%)	5 (Herbicidal rate of 90% or more (almost completely withered))	–
CCCC(=O)Oc1c(C)nn(C)c(=O)c1-c1c(-c2ccc3c(c2)OCCO3)sc2cc(OC)ccc12 [3-083]	4 (Herbicidal rate of 70% or more and less than 90%)	3 (Herbicidal rate of 40% or more and less than 70%)	4 (Herbicidal rate of 70% or more and less than 90%)	4 (Herbicidal rate of 70% or more and less than 90%)	4 (Herbicidal rate of 70% or more and less than 90%)	0 (Herbicidal rate of 5% or less (almost no effect))	0 (Herbicidal rate of 5% or less (almost no effect))	0 (Herbicidal rate of 5% or less (almost no effect))	0 (Herbicidal rate of 5% or less (almost no effect))	0 (Herbicidal rate of 5% or less (almost no effect))	3 (Herbicidal rate of 40% or more and less than 70%)	5 (Herbicidal rate of 90% or more (almost completely withered))	2 (Herbicidal rate of 20% or more and less than 40%)	0 (Herbicidal rate of 5% or less (almost no effect))	1 (Herbicidal rate of 5% or more and less than 20%)	3 (Herbicidal rate of 40% or more and less than 70%)	5 (Herbicidal rate of 90% or more (almost completely withered))	–
CCOc1ccc2c(-c3c(O)c(C)nn(C)c3=O)c(-c3ccccc3OC)sc2c1 [3-089]	5 (Herbicidal rate of 90% or more (almost completely withered))	5 (Herbicidal rate of 90% or more (almost completely withered))	4 (Herbicidal rate of 70% or more and less than 90%)	5 (Herbicidal rate of 90% or more (almost completely withered))	4 (Herbicidal rate of 70% or more and less than 90%)	1 (Herbicidal rate of 5% or more and less than 20%)	4 (Herbicidal rate of 70% or more and less than 90%)	4 (Herbicidal rate of 70% or more and less than 90%)	0 (Herbicidal rate of 5% or less (almost no effect))	5 (Herbicidal rate of 90% or more (almost completely withered))	4 (Herbicidal rate of 70% or more and less than 90%)	5 (Herbicidal rate of 90% or more (almost completely withered))	5 (Herbicidal rate of 90% or more (almost completely withered))	5 (Herbicidal rate of 90% or more (almost completely withered))	5 (Herbicidal rate of 90% or more (almost completely withered))	5 (Herbicidal rate of 90% or more (almost completely withered))	5 (Herbicidal rate of 90% or more (almost completely withered))	–
